Results: PMC9610465, “The Inhibition of α-Glucosidase, α-Amylase and Protein Glycation by Phenolic Extracts of Cotoneaster bullatus, Cotoneaster zabelii, and Cotoneaster integerrimus Leaves and Fruits: Focus on Anti-Hyperglycemic Activity and Kinetic Parameters” (Molecules, 2022)
Values after ≈ are worked out from the molar mass of the structure shown.

What was measured:
[1] = tested on: α-glucosidase; conditions: cited from earlier work
[2] = tested on: bovine serum albumin (BSA); assay: Protein glycation inhibitory assay (BSA–fructose model); type: biochemical
Protocol: The ability of the plant extracts/compounds to inhibit fructose-induced protein glycation was determined according to a method previously published with minor modifications. […] Briefly, fructose solution (600 µL) was mixed with BSA (600 µL) and 600 µL tested extracts/compounds at different concentrations and then the reaction mixture was incubated in the capped amber vials in the dark at 37 °C for six days.

[3] = tested on: α-amylase; conditions: earlier studies; cited from earlier work
[4] = molecular target: T1, Porcine pancreatic α-amylase (Sus scrofa, UniProt P00690); assay: α-Amylase inhibitory assay (potato starch, DNS); type: biochemical; conditions: mean ± SD (n = 3)
T1 construct: purchased Sigma-Aldrich
T1 sequence (P00690 16-511): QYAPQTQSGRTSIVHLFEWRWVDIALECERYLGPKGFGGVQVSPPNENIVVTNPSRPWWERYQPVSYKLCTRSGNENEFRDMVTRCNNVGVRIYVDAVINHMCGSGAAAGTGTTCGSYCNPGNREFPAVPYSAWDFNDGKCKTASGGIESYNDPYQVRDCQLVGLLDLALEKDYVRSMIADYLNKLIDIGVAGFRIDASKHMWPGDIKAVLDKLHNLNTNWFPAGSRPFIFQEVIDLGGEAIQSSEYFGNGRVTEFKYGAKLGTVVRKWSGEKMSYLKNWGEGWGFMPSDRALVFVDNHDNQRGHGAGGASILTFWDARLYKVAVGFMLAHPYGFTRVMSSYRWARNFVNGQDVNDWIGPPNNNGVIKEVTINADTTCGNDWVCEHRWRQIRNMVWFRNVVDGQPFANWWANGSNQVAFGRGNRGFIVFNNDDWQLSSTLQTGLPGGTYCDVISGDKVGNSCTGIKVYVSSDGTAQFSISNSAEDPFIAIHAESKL

[5] = BSA–fructose model, 37 °C, six days, mean ± SD (n = 3)

| SMILES | type of α-glucosidase inhibition [1] | IC50 Protein Glycation [2, 5] | IC50 [4] [µM] | also measured |
| --- | --- | --- | --- | --- |
| Oc1cc(O)c2c(c1)O[C@H](c1ccc(O)c(O)c1)[C@@H](O)C2 [(+)-catechin] | mixed-type inhibitors |  |  |  |
| N=C(N)NN [AG, aminoguanidine] |  | 71.09 ± 4.20 ^D µg/mL |  | IC50 Protein Glycation ([2]; BSA–fructose model, 37 °C, six days, mean ± SD (n = 3), listed as aminoguanidine): 71.1 µg/mL (≈ 960 µM) |
| C[C@H]1O[C@H](O[C@H]2[C@H](O)[C@@H](O)[C@@H](O[C@H]3[C@H](O)[C@@H](O)C(O)O[C@@H]3CO)O[C@@H]2CO)[C@H](O)[C@@H](O)[C@@H]1N[C@H]1C=C(CO)[C@@H](O)[C@H](O)[C@H]1O (stereo partly shown) [AR, acarbose] | competitively interacts |  |  | type of α-amylase inhibition [3]: mixed type |
| Oc1cc(O)c2c(c1)O[C@H](c1ccc(O)c(O)c1)[C@@H](O)[C@@H]2c1c(O)cc(O)c2c1O[C@H](c1ccc(O)c(O)c1)[C@@H](O)C2 [B3] |  |  |  | type of interaction with α-glucosidase [1]: noncompetitive interaction |
| O=C(O)CC(OC(=O)/C=C/c1ccc(O)c(O)c1)C(=O)O (stereo not shown) [CAD, caffeoylmalic acid] |  |  | > 1350 | IC50 Protein Glycation ([2]; bovine, 6 days, pH 7.4): 17.26 ± 1.09 ^B µg/mL |
| Oc1cc(O)c2c(c1)O[C@H](c1ccc(O)c(O)c1)[C@H](O)C2 [ECA, (–)-epicatechin] | mixed-type inhibitors | 8.79 ± 0.13 ^A, B µg/mL | > 689 |  |
| O=c1c(O[C@@H]2O[C@H](CO)[C@H](O)[C@H](O)[C@H]2O)c(-c2ccc(O)c(O)c2)oc2cc(O)cc(O)c12 [HP, hyperoside] |  | 14.34 ± 1.15 ^A, B µg/mL | > 861 |  |
| Oc1cc(O)c2c(c1)O[C@H](c1ccc(O)c(O)c1)[C@H](O)[C@H]2c1c(O)cc(O)c2c1O[C@H](c1ccc(O)c(O)c1)[C@H](O)C2 [PB2, procyanidin B2] |  |  | > 346 | type of interaction with α-glucosidase [1]: noncompetitive interaction; IC50 Protein Glycation ([2]; bovine, 6 days, pH 7.4): 2.20 ± 0.01 ^A µg/mL |
| O=c1c(O[C@@H]2O[C@H](CO)[C@H](O)[C@H](O)[C@H]2O[C@@H]2OC[C@@H](O)[C@H](O)[C@H]2O)c(-c2ccc(O)c(O)c2)oc2cc(O)cc(O)c12 [QPH, quercetin 3-O-β-D-(2″-O-β-D-xylopyranosyl)galactopyranoside] |  | 15.78 ± 1.14 ^A, B µg/mL |  | IC50 α-Amylase [4]: >400 µg/mL |
| C[C@@H]1O[C@@H](OC[C@H]2O[C@@H](Oc3c(-c4ccc(O)c(O)c4)oc4cc(O)cc(O)c4c3=O)[C@H](O)[C@@H](O)[C@@H]2O)[C@H](O)[C@H](O)[C@H]1O [rutin] | mixed type |  |  |  |
